Columns and labels:
Nalm-6 (B-lineage ALL) = assay: MTT cytotoxicity assay, Nalm-6; assay type: cell-based; details: Homo sapiens, 24-36 hours at 37° C., 0.1 to 250 μM
Method: (§1) Cytotoxicity of various compounds against tumor cells was performed using the MTT (3-[4,5-[…]]-2,5-diphenyl tetrazolium bromide) assay (Boehringer Mannheim Corp., Indianapolis, Ind.). Unless otherwise specified, all cell lines were obtained from the American Type Culture Collection (ATCC). Briefly, exponentially growing cells were seeded into a 96-well plate at a density of 2.5×10^4 cells/well and incubated for 36 hours at 37° C. prior to drug exposure. On the day of treatment, culture medium was carefully aspirated from the wells and replaced with fresh medium containing the indicated compound at concentrations ranging from 0.1 to 250 μM. Triplicate wells were used for each treatment.
(§2) Human leukemic cell lines (NALM-6, MOLT-3) glioblastoma cells (U373) and human breast tumor cell lines (BT20 and MDA-MB-231) were obtained from the American Type Culture Collection and maintained as a continuous cell line in Dulbecco's modified Eagles's medium supplemented with 10% fetal bovine serum and antibiotics.
(§3) The cells were incubated with the various compounds for 24-36 hours at 37° C. in a humidified 5% CO2 atmosphere. To each well, 10 μl of MTT (0.5 mg/ml final concentration) was added and the plates were incubated at 37° C. for 4 hours to allow MTT to form formazan crystals by reacting with metabolically active cells. The formazan crystals were solubilized overnight at 37° C. in a solution containing 10% SDS in 0.01 M HCl. The absorbence of each well was measured in a microplate reader (Labsystems) at 540 nm and a reference wavelength of […]. To translate the OD540 values into the number of live cells in each well, the OD540 values were compared to those on standard OD540 --versus--cell number curves generated for each cell line. The percent survival was calculated using the formula: [formula]
(§4) The IC50 values were calculated by non-linear regression analysis and are shown below in Tables 1-6.

Molt-3 (T-lineage ALL) = assay: MTT cytotoxicity assay, Molt-3; assay type: cell-based, human; details: MTT, 24-36 hours at 37° C., 0.1 to 250 μM
Method: as §1, §2, §3, §4

PC-3 (prostate cancer) = assay: MTT cytotoxicity assay, PC-3; assay type: cell-based; details: 24-36 hours at 37° C., 0.1 to 250 μM
Method: as §1, §3, §4

primary leukemic cells = assay: Apoptosis induction, primary leukemic cells (in situ TUNNEL, confocal microscopy); assay type: cell-based, human
Method: (§5) The ability of HI-131 to induce apoptosis cells was evaluated in human leukemia in NALM-6 cells and primary leukemic cells from 2 patients. Cells were treated with 50 μM compound HI-131 for 24 hours. After incubation, the cells were harvested and analyzed for apoptosis by in situ TUNNEL analysis and confocal laser scanning microscopy as described in Sudbeck et al., 1999, Clin Cancer Res., 5:1589-82. Controls were treated with vehicle alone.
(§6) Induction of apoptosis was further evaluated in primary leukemic cells and established NALM-6 and MOLT-3 cell lines following treatment with HI-131.

MOLT-3 cells = assay: Apoptosis induction, MOLT-3 cells; assay type: cell-based; details: Homo sapiens, MOLT-3, 24 h; vs vehicle control (FIG. 3)
Method: as §5, §6

[1] = tested on: MDA-MB-231 breast cancer cells; assay: Adhesion assay to ECM proteins, MDA-MB-231; assay type: cell-based, human; details: laminin, fibronectin or type IV collagen; 16 hours (FIG. 6)
Method: (§7) A human brain tumor cell line derived from an adult patient with glioblastoma, U-373 MG (Cat. #HTB-17) and MDA-MB-231 breast cancer cells (Cat. #HTB-26) were obtained from American Type Culture Collection (ATCC, Manassas, Va.) and maintained in liquid culture using DMEM supplemented with 10% fetal bovine serum and antibiotics. Fibroblast conditioned medium was used as a source of chemoattractant in vitro invasion assays. Conditioned medium was prepared as described previously (Albini, et al., 1987, Cancer Res., 47:3239-3245). […]
(§8) In adhesion assays, cells were centrifuged, washed twice with serum-free DMEM, counted and resuspended in serum-free DMEM to a final concentration of 2.5×10^5 cells/ml. […] The adherent fraction was quantitated using MTT (3-[4,5-dimethylthiazol-2-yl]-2,5-diphenyltetrazolium bromide) assays. […] The absorbance of each well was measured in a microplate reader (Labsystems) at […] and a reference wavelength of 690 nm. […] The adherent fraction of cells treated with HI-131 was compared to the DMSO-treated control cells and the percent adhesion relative to the control was determined.
(§9) Each treatment condition was evaluated in duplicate in 3 independent experiments. The IC50 values were calculated by non-linear regression analysis.

U373 glioblastoma cells = assay: Adhesion assay to ECM proteins, U373; assay type: cell-based, human; details: laminin, fibronectin or type IV collagen; 16 hours (FIG. 7)
Method: as §7, §8, §9

**Q.** Which results are given for CCCCCCCCCCCCSC[C@H](NC(C)=O)C(=O)CCl [HI-131, N-Ac-S-dodecyl-Cys chloromethyl ketone]?
**A.** IC50 (Nalm-6 (B-lineage ALL)): 2 µM; IC50 (Molt-3 (T-lineage ALL)): 2.3 µM; IC50 (PC-3 (prostate cancer)): 22.1 µM; apoptosis induction (TUNNEL/confocal), primary leukemic cells (primary leukemic cells; 50 μM, 24 hours, 2 patients): greatly induced apoptosis; fold induction at 50 µM (primary leukemic cells; Homo sapiens, 24 h, typical, vs vehicle control (FIG. 3)): ~4; rate of apoptosis, primary leukemic cell samples (primary leukemic cells; all but one of the samples (FIG. 3)): increased dramatically; fold induction at 50 µM (MOLT-3 cells): ~20; loss of adhesion, MDA-MB-231 [1]: dose-dependent loss of adhesion; loss of adhesion, U373 (U373 glioblastoma cells): dose-dependent loss of adhesion

From patent US6251882A, “Alkyl ketones as potent anti-cancer agents” (Parker Hughes Institute, priority 1999, dated 2001)
